Measured values published in patent publication US20260209218A1, “3-PHENYLQUINAZOLINONES AS NOVEL ANTI-CANCER THERAPY” (HELMHOLTZ ZENTRUM MÜNCHEN - DEUTSCHES FORSCHUNGSZENTRUM FÜR …, priority 2022, published 2026).

Legend:
HT-1080 wild type cells = assay: Cell viability assay (AquaBluer), ferroptosis induction; type: cell-based, human; settings: FIG. 1B; rescued by liproxstatin-1
Protocol: (§1) Cells were seeded on 96-well plates and cultured overnight. On the next day, the medium was changed to medium containing following compounds: RSL3, ML210, erastin, FIN56, FINO2, BSO, iFSP1, icFSP1, Lip-1, DFO, Fer-1, zVAD, Nec-1s, MCC950, olaparib, STS, TNFa, Smac mimic or nigericin at the indicated concentrations. For TAM and Dox treatment, cells were seeded with compounds at the same time. Cell viability was determined 1 h (for nigericin), 24-48 h (for RSL3, ML210, erastin, FIN56, FINO2, iFSP1, icFSP1, STS, TNFa, Smac mimic, and zVAD) or 72 h (for BSO, icFSP1, TAM, and Dox) after the treatment using AquaBluer (MultiTarget Pharmaceuticals, Cat #6015) as an indicator of viable cells according to the manufacturer's protocols. For apoptosis induction, HT-1080 cells were incubated with different concentrations of STS for 24 h. For necroptosis induction, HT-29 cells were incubated with different concentrations of TNFa with Smac mimic (400 nM), and zVAD (30 μM) for 24 h. […] As readout fluorescence was measured at Ex/Em=540/590 nm using a SpectraMax M5 microplate reader with SoftMax Pro v7 (Molecular devices) after 4 hours of incubation in normal cell culture conditions. The relative cell viability (%) was calculated as follows: (fluorescence (FL) of samples−background)/(FL of appropriate control samples−background)×100.

hFSP1 = biological target: T1, hFSP1 (Homo sapiens, UniProt Q9BRQ8); assay: Dose-response of screening hits, cell survival by Aquabluer in hFSP1 GPX4 KO cells; type: cell-based; settings: FSP1 overexpressing cells lacking GPX4
T1 construct: expressed in transfected cells; host or cells: Gpx4 KO isogenic fibroblasts (Pfa1, mouse) overexpressing hFSP1
T1 sequence (Q9BRQ8 1-373): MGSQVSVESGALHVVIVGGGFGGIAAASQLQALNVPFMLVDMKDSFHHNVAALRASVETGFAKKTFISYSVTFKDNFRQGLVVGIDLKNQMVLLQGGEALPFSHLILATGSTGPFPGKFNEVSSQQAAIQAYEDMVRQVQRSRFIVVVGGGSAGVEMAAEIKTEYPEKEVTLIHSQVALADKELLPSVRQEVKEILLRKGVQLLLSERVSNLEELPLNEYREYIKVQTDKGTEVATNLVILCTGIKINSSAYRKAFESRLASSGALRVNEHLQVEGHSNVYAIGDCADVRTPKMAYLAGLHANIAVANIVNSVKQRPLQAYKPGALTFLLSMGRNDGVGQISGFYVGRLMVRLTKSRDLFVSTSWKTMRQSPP
Protocol: To identify new small molecule inhibitors that induce ferroptosis in FSP1 overexpressing cells lacking GPX4, hFSP1 GPX4 KO as well as FSP1 GPX4 wild type (WT) isogenic fibroblasts were screened using a subtractive high throughput screening (HTS) approach. As such, both cell lines were plated in parallel and screened against HMGU libraries at a fixed concentration of 10 μM. Cell survival was evaluated using the LIVE/DEAD assay Aquabluer. The percentage (%) of viable cells was determined for both wild type (WT) and knockout (KO) cell lines. Hits were considered as compounds that induce ferroptosis in KO but not in WT cells. Subsequently, positive hits were assayed in a dose-response manner to establish EC50 values of respective compounds (see Table 2).

[1] = test system: Pfa1 Gpx4^KO cells overexpressing FSP1; assay: Cell viability assay (AquaBluer), ferroptosis induction; type: cell-based; settings: FIG. 1A; rescued by liproxstatin-1
Protocol: as §1

[2] = Microsomal stability, mouse liver microsomes; type: in vitro ADME; settings: Balb/c, pH 7.4, 0.42 mg microsomal protein per ml, 37° C., five time points over 40 minutes
Protocol: (§2) The objective of this study was to determine metabolic stability of 4 test articles and reference compounds in human and mouse liver microsomes at five time points over 40 minutes using HPLC-MS. Metabolic stability is defined as the percentage of parent compound lost over time in the presence of a metabolically active test system.
(§3) Microsomal incubations were carried out in 96-well plates in 5 aliquots of 30 μL each (one for each time point). Liver microsomal incubation medium comprised of phosphate buffer (100 mM, pH 7.4), MgCl2 (3.3 mM), NADPH (3 mM), glucose-6-phosphate (5.3 mM), glucose-6-phosphate dehydrogenase (0.67 units/ml) with 0.42 mg of liver microsomal protein per ml. In the control reactions, the NADPH-cofactor system was substituted with phosphate buffer. Test compounds (2 μM, final solvent concentration 1.6%) were incubated with microsomes at 37° C., shaking at 100 rpm. Five time points over 40 minutes were analyzed. The reactions were stopped by adding 5 volumes of acetonitrile with internal standard to incubation aliquots, followed by protein sedimentation by centrifuging at 5500 rpm for 5 minutes. Each reaction was performed in duplicates. Supernatants were analyzed using the HPLC system coupled with a tandem mass spectrometer.
(§4) The elimination constant (kel), half-life (t1,2), and intrinsic clearance (Clint) were determined in a plot of In(AUC) versus time, using linear regression analysis:^1

[3] = Pharmacokinetics after a single intraperitoneal dose, plasma by LC-MS/MS; type: in vivo, male Balb/cAnN mice; settings: mouse, IP, 10 mg/kg
Protocol: The purpose of this study was to determine the pharmacokinetic characteristics of compound 13 in male Balb/cAnN mice following intraperitoneal (IP) administration. Levels of the test compound were determined by LC-MS/MS in the blood plasma samples over time after a single dose.
Study design, animal selection, handling and treatment were all in accordance with the Enamine PK study protocols and Institutional Animal Care and Use Guidelines (BACUC approval number #HC-PK-10112023). Animal treatment and samples preparation were conducted by the Animal Laboratory personnel at Enamine/Bienta. Male Balb/cAnN mice (10 weeks old, body weight ranged from 19.6 g to 23.3 g and average body weight across all groups 21.0 g, SD=0.9 g) were used in this study. The animals were randomly assigned to the treatment groups before the pharmacokinetic study; all animals were fasted for 4 h before dosing. Six sampling time points (5, 15, 30, 60, 120, and 360 min) were set for this pharmacokinetic study. Each of the time point treatment group included 4 animals. There was also a control group of one vehicle-dosed animal. Dosing was done according to the treatment Schedules outlined in Table 5. Mice were injected IP with 2,2,2-tribromoethanol at the dose of 150 mg/kg prior to drawing the blood. Blood collection was performed from the orbital sinus in microtainers containing K3EDTA. Animals were sacrificed by cervical dislocation after the blood samples collection. Blood samples were centrifuged for 10 min at 3000 rpm. All samples were immediately processed, flash-frozen and stored at −70° C. until subsequent analysis.
Plasma samples (40 μl) were mixed with 200 μl of IS(90) solution. After mixing by pipetting and centrifuging for 4 min at 6000 rpm, 0.25 μl of each supernatant was injected into LC-MS/MS system.
Analyses of plasma samples were conducted by the Bioanalytical Laboratory personnel at Enamine/Bienta. The concentrations of 13 in samples were determined using high performance liquid chromatography/tandem mass spectrometry (HPLC-MS/MS). Shimadzu HPLC system comprised 2 isocratic pumps LC-10ADvp, an autosampler SIL-20AC, a sub-controller FCV-14AH and a degasser DGU-14A. Mass spectrometric analysis was performed using an API 3000 (triple-quadrupole) instrument from AB Sciex (Canada) with an electro-spray (ESI) interface. The data acquisition and system control were performed using Analyst 1.6.3 software from AB Sciex.
The concentrations of the test compound below the lower limit of quantitation (LLOQ=100 ng/ml) were designated as zero. The pharmacokinetic data analysis was performed using noncompartmental, bolus injection or extravascular input analysis models in WinNonlin 5.2 (PharSight). Data below LLOQ were presented as missing to improve the validity of T½ calculations.

[4] = Microsomal stability, human liver microsomes; type: in vitro ADME; settings: pH 7.4, 0.42 mg microsomal protein per ml, 37° C., five time points over 40 minutes
Protocol: as §2, §3, §4

[5] = test system: ferroptosis-resistant tumor cells; settings: background statement, references 16-18; cited from earlier work
[6] = test system: GPX4 KO human melanoma cells (A375); assay: Xenograft subcutaneous tumor model, A375; type: in vivo, nude mice; settings: FIG. 3B; treatment from day 3 post implantation, 50 mg/kg i.p.
Protocol: (§5) For the xenograft subcutaneous tumor experiments, GPX4^KO A375 cells (5×10^6 cells in 100 μL PBS) were injected subcutaneously into the right flank of 7-week-old female athymic nude mice. After tumors reached a size of approximately 25-100 mm^3, mice were randomized and treated with vehicle or icFSP1 (50 mg/kg, Intonation) by i.p. injections twice per day for the first 4 days and afterward once daily.
(§6) icFSP1 was dissolved in 45% PEG E 300 (Sigma, Cat #91462-1 KG) and 55% PBS (Gibco, Cat #14190094). Tumors were measured by caliper every day and tumor volume was calculated by the following formula: Tumor volume=length×width^2×0.52. When tumor sizes were either larger than 1000 mm^3 at measurement or tumors became necrotic, these tumors were considered to be human endpoints. When tumors became human endpoints, the experiment was stopped at that point and no further experiments were conducted.

[7] = test system: Gpx4 KO/Fsp1KO double mutant murine melanoma cells (B16F10) reconstituted with human FSP1; assay: Syngeneic subcutaneous tumor model; type: in vivo, C57BL6/J mice
Protocol: All mice were obtained from Charles River. For the syngeneic subcutaneous tumor experiments, Gpx4^KO/Fsp1^KO 1B16F10 cells stably overexpressing hFSP1-HA (1×10^6 cells in 100 μL PBS) were injected subcutaneously into the right flank of 7-week-old female C57BL6/J mice. After tumors reached a size of approximately 25-50 mm^3, mice were randomized and treated with vehicle or icFSP1 (50 mg/kg, Intonation) by i.p. injections twice per day for 4-5 days. For generating tumor samples for staining, Gpx4^KO/Fsp1^KO 1B16F10 cells stably expressing hFSP1-WT-HA or hFSP1-Q319K-HA (1×10^6 cells in 100 μL PBS) were injected subcutaneously into the right flank of 7-week-old female C57BL6/J mice. After tumors reached a size of approximately 50-150 mm^3, mice were treated with vehicle or icFSP1 (50 mg/kg, Intonation) by i.p. injections twice per day for 3 days.
as §6

[8] = test system: H460 GPX4 KO cells (a human lung cancer cell line); assay: Xenograft subcutaneous tumor model, H460; type: in vivo, Athymic Nude mice; settings: FIG. 11C; 50 mg/kg i.p. twice per day from day 8
Protocol: as §5, with “H460” for “A375”, “flanks” for “flank”, “6-week-old” for “7-week-old”, “100” for “25-100”, “day.” for “day for the first 4 days and afterward once daily.”
as §6

[9] = test system: WT hFSP1 or its mutants S187C, L217R and Q319K; assay: Saturation transfer difference (STD) NMR; type: binding; settings: FIG. 9; 5 μM recombinant human FSP1, 100-fold molar excess of compound, 10° C.
Protocol: Saturation transfer difference (STD) experiments were performed at Bruker Avance III HD spectrometer at 600 MHz ^1H frequency using a H/N/C triple resonance cryogenic probe. Spectra were recorded at 10° C. with 5 μM recombinant human FSP1 (mutant) and 100-fold molar excess of icFSP1 in phosphate-buffer saline with additional 150 mM NaCl, 1% (v/v) DMSO-d6 and 10% (v/v) D2O for deuterium-lock. Saturation time was 2.5 sec and on- and off-frequencies were 0.68 and −17 ppm, respectively. NMR spectra were processed using Topspin 4.0.6 (Bruker).

COc1cc(CC(=O)Nc2ccc(-n3c(C)nc4ccccc4c3=O)cc2)cc(OC)c1OC [Compound 1]
ferroptosis induction (cell death, AquaBluer) (HT-1080 wild type cells): efficiently induces ferroptosis | EC50 (hFSP1): < 1000 nM | ferroptosis induction (cell death, AquaBluer) [1]: efficiently induces ferroptosis

Cc1nc2ccccc2c(=O)n1-c1ccc(NC(=O)Cc2ccccc2)cc1 [Compound 13, N-(4-(2-methyl-4-oxoquinazolin-3(4H)-yl)phenyl)-2-phenylacetamide]
microsomal CLint at 2 μM [2]: 6 µL/min/mg | plasma concentration relative to the EC50 value ([3]; based on the total drug concentration): 10 fold | Cmax ([3]; male, Balb/cAnN, plasma): 10200 ng/mL | Tmax ([3]; male, Balb/cAnN, plasma): 0.25 h | AUC(0-t) ([3]; male, Balb/cAnN, plasma, read-out: AUC0→t = 60 min (AUClast) (converted)): 30000 ng·h/mL | AUC(0-inf) ([3]; male, Balb/cAnN, plasma, read-out: AUC0→∞ (AUCINF_obs) (converted)): 33500 ng·h/mL | MRT inf ([3]; male, Balb/cAnN, plasma, read-out: MRT (MRTinf) (converted)): 2.52 h | MRT last ([3]; male, Balb/cAnN, plasma, read-out: MRT (MRTlast) (converted)): 1.78 h | half-life ([3]; male, Balb/cAnN, plasma, read-out: T1/2 (HL_Lambda_z)): 1.9 h | Kel (Lambda_z) ([3]; plasma): 0.00608 min⁻¹ | microsomal CLint at 2 μM [4]: 12 µL/min/mg | EC50 (hFSP1): > 1000 nM

Cc1ccc(-c2c(C#N)c(N)n3c(nc4ccccc43)c2C#N)cc1 [iFSP1, 1-amino-3-(4-methylphenyl)-pyrido[1,2-a]benzimidazole-2,4-dicarbonitrile]
sensitisation towards ferroptosis [5]: efficiently sensitizes ferroptosis-resistant tumor cells towards ferroptosis

COc1cc(CC(=O)Nc2ccc(-n3c(C)nc4ccccc4c3=O)cc2)cc(OC)c1OC [icFSP1]
tumor growth [6]: inhibited tumor growth in both human and mouse tumors significantly | tumor growth (tumor volume, tumor weight) ([7]; FIG. 3A, treatment from day 6 post implantation, 50 mg/kg i.p. twice per day): inhibited tumor growth in both human and mouse tumors significantly | tumor growth, hFSP1 WT versus FSP1-Q319K expressing cells ([7]; FIG. 10E, 50 mg/kg i.p. twice per day from day 6): inhibits tumor growth of hFSP1 WT but not of FSP1-Q319K expressing cells | tumor growth [8]: inhibits tumor growth in vivo | binding by STD spectra [9]: show binding of icFSP1
